No end group written: not given here.
tested on: SW480; test: Anti-cancer assay, MTT, LD50; assay type: cell-based; settings: SW480 colon adenocarcinoma line, 24 hours with peptide
Excerpt: (§1) Numbers are LD50 values (μg/mL).

Substance	LD50 SW480
FAFGKGIGKVGKKLL-NH2 [P133]	> (> indicates greater than 1000)
FGKGIGKVGKKLL-NH2 [P132]	> (> indicates greater than 1000)
FALKALKK-NH2 [P145]	> (> indicates greater than 1000)
KAKLF-NH2 [P130, KAKLF-NH2]	> (> indicates greater than 1000)
KWKLF-NH2 [P131, KWKLF-NH2]	555 µg/mL
FALALKALKK-NH2 [P169]	> (> indicates greater than 1000)

tested on: H1299; test: Anti-cancer assay, MTT, LD50; assay type: cell-based; settings: 24 hours with peptide, lung large cell carcinoma
Excerpt: as §1

Substance	H1299 LD50
FAFGKGIGKVGKKLL-NH2 [P133]	> (> indicates greater than 1000)
FGKGIGKVGKKLL-NH2 [P132]	> (> indicates greater than 1000)
FALKALKK-NH2 [P145]	> (> indicates greater than 1000)
KAKLF-NH2 [P130, KAKLF-NH2]	> (> indicates greater than 1000)
KWKLF-NH2 [P131, KWKLF-NH2]	> (> indicates greater than 1000)
FALALKALKK-NH2 [P169]	640 µg/mL

tested on: HeLaS3; test: Anti-cancer assay, MTT, LD50; assay type: cell-based; settings: 24 hours with peptide, cervical carcinoma
Excerpt: as §1

Substance	HeLaS3 LD50
FAFGKGIGKVGKKLL-NH2 [P133]	> (> indicates greater than 1000)
FGKGIGKVGKKLL-NH2 [P132]	> (> indicates greater than 1000)
FALKALKK-NH2 [P145]	240 µg/mL
KAKLF-NH2 [P130, KAKLF-NH2]	> (> indicates greater than 1000)
KWKLF-NH2 [P131, KWKLF-NH2]	> (> indicates greater than 1000)
FALALKALKK-NH2 [P169]	> (> indicates greater than 1000)

tested on: PC3; test: Anti-cancer assay, MTT, LD50; assay type: cell-based; settings: 24 hours with peptide, prostate adenocarcinoma
Excerpt: as §1

Substance	PC3 LD50
FAFGKGIGKVGKKLL-NH2 [P133]	> (> indicates greater than 1000)
FGKGIGKVGKKLL-NH2 [P132]	> (> indicates greater than 1000)
FALKALKK-NH2 [P145]	> (> indicates greater than 1000)
KAKLF-NH2 [P130, KAKLF-NH2]	> (> indicates greater than 1000)
KWKLF-NH2 [P131, KWKLF-NH2]	> (> indicates greater than 1000)
FALALKALKK-NH2 [P169]	> (> indicates greater than 1000)

tested on: MCF7; test: Anti-cancer assay, MTT, LD50; assay type: cell-based; settings: MCF7 breast adenocarcinoma line, MTT, 24 hours with peptide
Excerpt: as §1

Substance	LD50 MCF7
FAFGKGIGKVGKKLL-NH2 [P133]	> (> indicates greater than 1000)
FGKGIGKVGKKLL-NH2 [P132]	> (> indicates greater than 1000)
FALKALKK-NH2 [P145]	> (> indicates greater than 1000)
KAKLF-NH2 [P130, KAKLF-NH2]	> (> indicates greater than 1000)
KWKLF-NH2 [P131, KWKLF-NH2]	600 µg/mL
FALALKALKK-NH2 [P169]	510 µg/mL

tested on: BMKC; test: Anti-cancer assay, MTT, LD50; assay type: cell-based; settings: BMKC cloned melanoma line, 24 hours with peptide
Excerpt: as §1

Substance	LD50 BMKC
FAFGKGIGKVGKKLL-NH2 [P133]	> (> indicates greater than 1000)
FGKGIGKVGKKLL-NH2 [P132]	> (> indicates greater than 1000)
FALKALKK-NH2 [P145]	> (> indicates greater than 1000)
KAKLF-NH2 [P130, KAKLF-NH2]	> (> indicates greater than 1000)
KWKLF-NH2 [P131, KWKLF-NH2]	> (> indicates greater than 1000)
FALALKALKK-NH2 [P169]	530 µg/mL

tested on: WI38; test: not given; settings: MTT, 24 hours with peptide; normal fibroblast line

Substance	WI38 LD50
FAFGKGIGKVGKKLL-NH2 [P133]	> (> indicates greater than 1000)
FGKGIGKVGKKLL-NH2 [P132]	> (> indicates greater than 1000)
FALKALKK-NH2 [P145]	> (> indicates greater than 1000)
KAKLF-NH2 [P130, KAKLF-NH2]	> (> indicates greater than 1000)
KWKLF-NH2 [P131, KWKLF-NH2]	> (> indicates greater than 1000)
FALALKALKK-NH2 [P169]	> (> indicates greater than 1000)

same assay, conditions: WI38 normal lung fibroblast line, MTT, 24 hours with peptide

Substance	LD50 WI38
FAFGKGIGKVGKKLL-NH2 [P133]	> (> indicates greater than 1000)
FGKGIGKVGKKLL-NH2 [P132]	> (> indicates greater than 1000)
FALKALKK-NH2 [P145]	> (> indicates greater than 1000)
KAKLF-NH2 [P130, KAKLF-NH2]	> (> indicates greater than 1000)
KWKLF-NH2 [P131, KWKLF-NH2]	> (> indicates greater than 1000)
FALALKALKK-NH2 [P169]	> (> indicates greater than 1000)

tested on: Pseudomonas aeruginosa ATCC 9027; test: Antimicrobial assay I, MIC by OD measurement; assay type: cell-based; settings: 37° C. for 24 hours, absorbance 620 nm

Substance	paerug9027 (MIC)
FAFGKGIGKVGKKLL-NH2 [P133]	> (> indicates greater than 200 μg/mL)
FGKGIGKVGKKLL-NH2 [P132]	100 µg/mL
FALKALKK-NH2 [P145]	100 µg/mL
KAKLF-NH2 [P130, KAKLF-NH2]	200 µg/mL
KWKLF-NH2 [P131, KWKLF-NH2]	10 µg/mL
FALALKALKK-NH2 [P169]	100 µg/mL

tested on: Staphylococcus aureus ATCC 6538; test: Antimicrobial assay I, MIC by OD measurement; assay type: cell-based; settings: 37° C. for 24 hours, absorbance 620 nm

Substance	staph6538 (MIC)
FAFGKGIGKVGKKLL-NH2 [P133]	> (> indicates greater than 200 μg/mL)
FGKGIGKVGKKLL-NH2 [P132]	> (> indicates greater than 200 μg/mL)
FALKALKK-NH2 [P145]	200 µg/mL
KAKLF-NH2 [P130, KAKLF-NH2]	200 µg/mL
KWKLF-NH2 [P131, KWKLF-NH2]	25 µg/mL
FALALKALKK-NH2 [P169]	100 µg/mL

tested on: human red blood cells (RBC); test: in vitro; assay type: cell-based; settings: hemolytic assay, concentration at 50% hemolysis, 1 hour at 37° C.

Substance	LD50
FAFGKGIGKVGKKLL-NH2 [P133]	> (> indicates greater than 1000)
FGKGIGKVGKKLL-NH2 [P132]	> (> indicates greater than 1000)
FALKALKK-NH2 [P145]	> (> indicates greater than 1000)
KAKLF-NH2 [P130, KAKLF-NH2]	> (> indicates greater than 1000)
KWKLF-NH2 [P131, KWKLF-NH2]	> (> indicates greater than 1000)
FALALKALKK-NH2 [P169]	> (> indicates greater than 1000)

tested on: yeast (Saccharomyces cerevisiae); test: Antimicrobial assay I, yeast assay in RPMI 1640; assay type: cell-based; settings: RPMI 1640 media

Substance	yeast (MIC or MFC)
FAFGKGIGKVGKKLL-NH2 [P133]	> (> indicates greater than 200 μg/mL)
FGKGIGKVGKKLL-NH2 [P132]	> (> indicates greater than 200 μg/mL)
FALKALKK-NH2 [P145]	200 µg/mL
KAKLF-NH2 [P130, KAKLF-NH2]	200 µg/mL
KWKLF-NH2 [P131, KWKLF-NH2]	100 µg/mL
FALALKALKK-NH2 [P169]	100 µg/mL

From US20050209157A1, “Short bioactive peptides and methods for their use” (priority 2001, published 2005)
